Test results reported in US8637528B2, “Use of PDE7 inhibitors for the treatment of movement disorders” (Omeros Corporation, priority 2007, dated 2014).

How the values were obtained:
[1] = tested on: MPTP-treated mice; experiment: inked paw stride length in the MPTP mouse model of Parkinson's disease, initial study (Example 5); type: in vivo; settings: for effect on stride length of saline-treated mice, in words: 20 minutes after dosing
Procedure: (§1) Adult male C57BL/6J; retired breeders, aged between 7-9 months (Jackson Laboratory, Bar Harbor, Me., USA), singly housed.
Mice received 2 subcutaneous injections of methylphenyltetrahydropyridine (“MPTP”) at a dose of 15 mg/kg (free base) with a 10-12 hour interval between injections. Control mice (sham lesion groups) were administered saline instead of MPTP.
Seven days after MPTP or saline administration, OM69 was administered to mice. For each dose, a 100× stock of OM69 compound was prepared in 100% DMSO and subsequently diluted 100× into phosphate buffered saline (PBS). Then 100 μL of this 1× solution was administered via intraperitoneal (IP) injection.
Prior to injection with MPTP or saline, animals were pre-trained to walk across a clean sheet of paper into their home cage without stopping. For assessment of stride length, animals had their forepaws placed in black ink and the length of forepaw steps during normal walking (in a straight line only) was measured. The animals were immediately put back into their home cage upon completion of the task. Stride length was determined by measuring the distance between each step on the same side of the body, measuring from the middle toe of the first step to the heel of the second step. An average of at least four clear steps was calculated.
Retired breeder male mice (12-15 per group, ˜48-60 animals total) were treated with either saline or 2×15 mg/kg MPTP (12 saline; […]) to induce a Parkinsonian state (neurochemical loss of dopamine with corresponding behavioral deficits).
On day eight stride length was measured again, and the control value for stride length was derived from the stride length of saline-treated animals. Following this measurement the first treatments with L-dopa (5 mg/kg) or OM69 (0.1 mg/kg) were administered on day eight, as shown in FIG. 8. Stride length was then measured for each animal 20 minutes after dosing. […] Dosing with the treatments shown in FIG. 8 was carried out on successive days, with stride length measured 20 minutes after each dosing. As mentioned above, it was previously determined from pharmacokinetic studies that OM69 is washed out of the mice within 12 hours after dosing, so the stride length test carried out 20 minutes after dosing was believed to be measuring the effect of only the compounds administered on the day of treatment.
On day nine Group 1 animals were treated with L-dopa (1 mg/kg), and Group 2 animals were treated with OM69 (0.01 mg/kg). On day ten the treatment groups were crossed over, and Group 1 animals were treated with OM69 (0.01 mg/kg), and Group 2 animals were treated with L-dopa (1 mg/kg).
As further shown in FIG. 8, for the combination studies, all the mice in Group 1 and Group 2 were combined. On day 11 following MPTP administration, all the animals in Group 1 and Group 2 (n=9) were treated with the combination of L-dopa (1 mg/kg) and OM69 (0.01 mg/kg), with the stride length test carried out 20 minutes after dosing. On day 12 following MPTP administration, all the animals in Group 1 and Group 2 (n=9) were treated with the combination of L-dopa (1 mg/kg) and OM69 (0.03 mg/kg) with the stride length test carried out 20 minutes after dosing. In these combination studies carried out on day 11 and day 12, the average stride length data from two of the nine animals was not scorable because these two animals either ran rather than walking at a normal speed, or they kept starting and stopping rather than walking continuously. Therefore, these two animals were excluded, and only the remaining seven animals (n=7) were scored for the combination studies.
To assess and compare the effects of OM69 and L-dopa at these doses, data from mice with equivalent dosing was pooled. Thus, the average stride length for animals treated with L-dopa (1 mg/kg) was determined using measurements obtained from all nine animals. […]

[2] = plasma and brain concentration in mice after intraperitoneal injection (LC/MS/MS); type: in vivo, mouse
Procedure: as §1
Just prior to the harvesting of tissues, mice were anesthetized with avertin. Samples of whole brain or plasma were collected from three animals per time point at 15 minutes, 30 minutes, 60 minutes, 120 minutes, and 240 minutes after injection. Blood samples were collected by retro-orbital bleeding. Plasma was prepared and red cells were removed by centrifugation. The mice were perfused with saline to remove contaminating blood. The brains were removed and rapidly frozen in liquid nitrogen for subsequent analysis. The plasma and brain samples were stored at −80° C. or on dry ice and the concentration of compound was determined by LC/MS/MS analysis as follows:
Whole brain tissue was homogenized using a Mini-Beaddeater-8™ (BioSpec Products, Bartlesville, Okla.). Plasma or homogenized brain samples were precipitated with acetonitrile and filtered in 96-well format using Captiva 0.20 micron filtration plates (Varian Corp, Lake Forest, Calif.). Filtrates were evaporated under nitrogen to dryness at 50° C. and were then reconstituted for LC-MS analysis.
Quantitative measurements for inhibitory compound in plasma and brain samples were obtained using a Thermo Ultra triple quadrupole mass spectrometer (Thermo Fisher Scientific, San Jose, Calif.), utilizing electrospray ionization in the multiple reaction monitoring mode of data acquisition. Sample extracts were injected onto a 2.1×30 mm packed Xterra C18-MS high pressure liquid chromatography (HPLC) column (Waters Corp, Milford, Mass.). The mobile phase eluting the compound from the HPLC column was applied using a Thermo Surveyor MS Plus HPLC quaternary pumping system (Thermo Fisher Scientific, San Jose, Calif.) and a HTC PAL autoinjector (LEAP Technologies, Chapel Hill, N.C.).

[3] = target: PDE8A (Homo sapiens (Human), UniProt O60658); experiment: PDE selectivity SPA assay, PDE8A; type: biochemical; settings: IC50 against PDE8A divided by IC50 against PDE7A
Chain of PDE8A (O60658 whole entry): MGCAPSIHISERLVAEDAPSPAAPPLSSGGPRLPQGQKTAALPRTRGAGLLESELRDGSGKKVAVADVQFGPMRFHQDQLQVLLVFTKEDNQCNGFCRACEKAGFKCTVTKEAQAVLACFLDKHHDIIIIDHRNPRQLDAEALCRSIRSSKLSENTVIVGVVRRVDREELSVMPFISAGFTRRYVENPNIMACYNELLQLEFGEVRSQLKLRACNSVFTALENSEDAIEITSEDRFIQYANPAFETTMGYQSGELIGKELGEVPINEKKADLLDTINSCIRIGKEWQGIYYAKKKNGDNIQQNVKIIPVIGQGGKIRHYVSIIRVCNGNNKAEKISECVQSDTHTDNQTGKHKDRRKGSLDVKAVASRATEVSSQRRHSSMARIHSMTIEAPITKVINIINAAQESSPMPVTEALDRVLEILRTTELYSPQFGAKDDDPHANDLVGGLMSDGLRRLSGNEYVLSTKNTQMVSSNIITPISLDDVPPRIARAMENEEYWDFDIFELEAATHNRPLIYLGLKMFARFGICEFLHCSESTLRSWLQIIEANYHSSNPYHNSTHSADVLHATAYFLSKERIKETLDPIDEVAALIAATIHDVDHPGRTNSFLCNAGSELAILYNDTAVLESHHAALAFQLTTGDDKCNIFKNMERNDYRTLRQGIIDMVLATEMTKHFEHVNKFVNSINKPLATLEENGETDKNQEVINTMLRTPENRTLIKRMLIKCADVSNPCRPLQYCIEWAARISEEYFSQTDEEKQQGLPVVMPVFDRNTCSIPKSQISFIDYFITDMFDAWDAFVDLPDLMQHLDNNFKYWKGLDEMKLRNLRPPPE

[4] = target: PDE3A (Homo sapiens (Human), UniProt Q14432); experiment: PDE selectivity SPA assay, PDE3A; type: biochemical; settings: IC50 against PDE3A divided by IC50 against PDE7A
Chain of PDE3A (Q14432 whole entry): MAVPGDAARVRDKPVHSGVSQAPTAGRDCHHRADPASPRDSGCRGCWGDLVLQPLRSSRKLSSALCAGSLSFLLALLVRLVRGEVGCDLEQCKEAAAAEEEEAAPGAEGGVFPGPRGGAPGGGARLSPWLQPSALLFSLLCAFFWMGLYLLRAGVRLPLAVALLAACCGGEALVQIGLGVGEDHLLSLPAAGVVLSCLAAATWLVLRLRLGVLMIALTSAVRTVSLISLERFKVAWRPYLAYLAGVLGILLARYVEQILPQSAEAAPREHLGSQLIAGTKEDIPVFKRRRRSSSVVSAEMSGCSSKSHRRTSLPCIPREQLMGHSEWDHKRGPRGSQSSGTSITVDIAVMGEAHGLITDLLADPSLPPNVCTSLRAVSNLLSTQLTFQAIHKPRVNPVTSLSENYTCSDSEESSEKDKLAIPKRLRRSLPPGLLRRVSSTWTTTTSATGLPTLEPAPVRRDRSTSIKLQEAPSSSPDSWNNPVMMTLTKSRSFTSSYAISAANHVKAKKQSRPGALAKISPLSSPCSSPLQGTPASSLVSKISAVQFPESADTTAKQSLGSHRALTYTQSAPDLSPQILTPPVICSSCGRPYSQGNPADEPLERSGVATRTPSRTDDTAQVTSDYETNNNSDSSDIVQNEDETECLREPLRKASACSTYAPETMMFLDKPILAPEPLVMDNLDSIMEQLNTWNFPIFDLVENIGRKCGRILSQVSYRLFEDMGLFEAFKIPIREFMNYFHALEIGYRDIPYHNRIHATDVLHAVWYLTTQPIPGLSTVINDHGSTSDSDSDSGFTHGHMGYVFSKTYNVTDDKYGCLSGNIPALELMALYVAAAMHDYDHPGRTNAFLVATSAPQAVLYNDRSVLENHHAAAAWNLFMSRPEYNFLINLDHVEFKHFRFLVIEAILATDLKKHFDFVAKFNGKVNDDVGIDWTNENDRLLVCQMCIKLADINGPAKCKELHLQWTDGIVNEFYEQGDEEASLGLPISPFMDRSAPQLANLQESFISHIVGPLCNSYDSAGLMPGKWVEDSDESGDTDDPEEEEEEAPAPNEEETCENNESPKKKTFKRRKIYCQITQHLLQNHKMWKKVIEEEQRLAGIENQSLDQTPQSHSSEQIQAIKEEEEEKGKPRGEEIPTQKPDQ

[5] = target: PDE9A (Homo sapiens (Human), UniProt O76083); experiment: PDE selectivity SPA assay, PDE9A; type: biochemical; settings: IC50 against PDE9A divided by IC50 against PDE7A
Chain of PDE9A (O76083 whole entry): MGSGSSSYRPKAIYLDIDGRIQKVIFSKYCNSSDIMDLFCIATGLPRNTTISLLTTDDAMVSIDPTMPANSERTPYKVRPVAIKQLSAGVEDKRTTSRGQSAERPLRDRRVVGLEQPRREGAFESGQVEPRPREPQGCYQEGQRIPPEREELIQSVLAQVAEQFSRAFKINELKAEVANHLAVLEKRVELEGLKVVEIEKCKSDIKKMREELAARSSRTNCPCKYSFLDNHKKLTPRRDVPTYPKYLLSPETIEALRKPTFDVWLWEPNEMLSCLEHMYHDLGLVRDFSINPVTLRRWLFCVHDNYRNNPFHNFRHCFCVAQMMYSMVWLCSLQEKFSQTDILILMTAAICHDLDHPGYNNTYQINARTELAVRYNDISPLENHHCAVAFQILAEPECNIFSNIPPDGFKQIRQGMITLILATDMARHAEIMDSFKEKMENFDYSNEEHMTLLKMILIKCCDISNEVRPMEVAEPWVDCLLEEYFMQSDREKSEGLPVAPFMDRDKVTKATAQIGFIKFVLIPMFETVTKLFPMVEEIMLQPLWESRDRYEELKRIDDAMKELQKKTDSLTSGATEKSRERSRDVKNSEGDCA

[6] = target: PDE7B (Homo sapiens (Human), UniProt Q9NP56); experiment: PDE7 phosphodiesterase scintillation proximity assay (SPA), PDE7B; type: biochemical; settings: for Fold Selectivity for PDE7A versus PDE7B: IC50 against PDE7B divided by IC50 against PDE7A; for 7A/7B Ratio: ratio of the PDE7B and PDE7A IC50 values; for selectivity for inhibition of the PDE7B enzyme as compared to the other PDEs: versus PDE1B, 2A, 3A, 4A, 5A, 8A, 9A, 10A, 11A
Chain of PDE7B (Q9NP56 107-450 limits assumed): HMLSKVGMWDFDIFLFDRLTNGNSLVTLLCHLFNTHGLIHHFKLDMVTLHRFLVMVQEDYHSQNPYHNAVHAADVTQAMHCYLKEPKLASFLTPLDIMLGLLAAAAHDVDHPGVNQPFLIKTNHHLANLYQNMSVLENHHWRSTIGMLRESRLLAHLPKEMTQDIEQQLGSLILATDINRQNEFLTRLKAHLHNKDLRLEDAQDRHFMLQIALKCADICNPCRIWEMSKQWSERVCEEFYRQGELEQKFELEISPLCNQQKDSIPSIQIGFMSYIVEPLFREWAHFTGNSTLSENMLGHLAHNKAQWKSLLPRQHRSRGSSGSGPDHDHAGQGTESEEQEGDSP

[7] = mouse, 1.0 mg/kg IP, 15 minutes
[8] = mouse, 1.0 mg/kg IP, 30 minutes post injection

N[C@@H](Cc1ccc(O)c(O)c1)C(=O)O [L-dopa, levodopa, reference compound]
effect on stride length, in words ([1]; MPTP-treated mice, L-dopa 1 mg/kg): only a small effect
effect on stride length, in words ([1]; MPTP-treated mice, L-dopa 5 mg/kg): fully restore the stride length to that seen without MPTP treatment
dose dependence of the effect on stride length, in words ([1]; MPTP-treated mice, L-dopa 1 and 5 mg/kg): increases their stride length in a dose-dependent manner
effect on stride length of saline-treated mice, in words ([1]; L-dopa 5 mg/kg): Neither L-dopa (5 mg/kg) nor OM69 (0.1 mg/kg) altered the stride length of saline-treated mice

COc1cc(N)ccc1-c1cc2c(c(=O)[nH]1)C(C1CCCCC1)N=[N+]2C (stereo not shown) [OM69]
brain tissue concentration [2, 7]: 25 ng/g
plasma concentration [2, 7]: 51 ng/g
peak brain level [2, 8]: 44 ng/g
peak plasma level [2, 8]: 59 ng/g
brain to plasma ratios ([2]; mouse, 1.0 mg/kg IP, all time points with levels above the lower limit of quantitation): 45-75%
brain concentration converted to molar ([2]; mouse, 30 minutes after injection of a 1 mg/kg dose): 124 nM
Ratio of Total Brain Exposure/Total Plasma Exposure ([2]; mouse, IP, AUC brain / AUC plasma, 1.0 mg/kg OM69, 10.0 mg/kg OM056, 30.0 mg/kg OM955 and OM956): 0.78
expected maximal brain concentration ([2]; mouse, dose of 0.1 mg/kg, assuming linearity of uptake and uniform brain distribution): 12.4 nM
time to wash out of mice ([2]; previously determined from pharmacokinetic studies): ≤ 12 h
Fold Selectivity for PDE7A versus PDE8A [3]: >7700 fold
Fold Selectivity for PDE7A versus PDE3A [4]: 8170 fold
Fold Selectivity for PDE7A versus PDE9A [5]: >7700 fold
effect on stride length, in words ([1]; MPTP-treated mice, OM69 0.01 mg/kg): only a small effect
effect on stride length, in words ([1]; MPTP-treated mice, OM69 0.1 mg/kg IP): fully restore the stride length to that seen without MPTP treatment
L-dopa dose with the same effect on stride length, relative to the OM69 dose ([1]; OM69 0.1 mg/kg IP versus L-dopa 5 mg/kg): 50 fold
effect on stride length of saline-treated mice, in words ([1]; OM69 0.1 mg/kg): Neither L-dopa (5 mg/kg) nor OM69 (0.1 mg/kg) altered the stride length of saline-treated mice
IC50 [6]: 4.8 nM
potency of PDE7B inhibition, in words [6]: high potency
Fold Selectivity for PDE7A versus PDE7B [6]: 3.7 fold
7A/7B Ratio [6]: 3.69
selectivity for inhibition of the PDE7B enzyme as compared to the other PDEs [6]: 250 fold

O=C1Nc2c(Cl)ccc(OCCO)c2C2(CCCCC2)N1 [OM955]
maximal brain concentration at dose where efficacy was observed ([2]; mouse, at 0.5 mg/kg, analogous calculation): 292 nM
Fold Selectivity for PDE7A versus PDE8A [3]: >192 fold
Fold Selectivity for PDE7A versus PDE3A [4]: >192 fold
Fold Selectivity for PDE7A versus PDE9A [5]: >192 fold
IC50 [6]: 106 nM
potency of PDE7B inhibition, in words [6]: moderate potency
Fold Selectivity for PDE7A versus PDE7B [6]: 2.0 fold
7A/7B Ratio [6]: 2.05
selectivity for inhibition of the PDE7B enzyme as compared to the other PDEs [6]: greater than 50 fold
